ChEMBL document CHEMBL1201862, “PubChem BioAssay data set” (2004)
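Method: 48-hour compound exposure of cells in 96-well plates, five concentrations, linear interpolation of endpoints. GI50 is the concentration that inhibits growth by half.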 Activity calls are given as the source filed them. No stated cut-off is given here; in the data, active = GI50 up to about 1.1 µM and inactive = higher.

What was measured:
Test in all cases: growth of human tumour cells (NCI), 48 h
OVCAR-3 = system: OVCAR-3
M14 = system: M14
SNB-75 = system: SNB-75
PC-3 = system: PC-3
HOP-62 = system: HOP-62
SF-295 = system: SF-295
HOP-92 = system: HOP-92
T47D = system: T47D
786-0 = system: 786-0
SR = system: SR
OVCAR-4 = system: OVCAR-4
MDA-MB-231 = system: MDA-MB-231
EKVX = system: EKVX
SK-MEL-5 = system: SK-MEL-5
MDA-MB-435 = system: MDA-MB-435
Hs-578T = system: Hs-578T
HCT-116 = system: HCT-116
ACHN = system: ACHN
SK-OV-3 = system: SK-OV-3
A498 = system: A498
CAKI-1 = system: CAKI-1
SNB-19 = system: SNB-19
TK-10 = system: TK-10
KM12 = system: KM12
NCI-H226 = system: NCI-H226
MCF7 = system: MCF7
SF-539 = system: SF-539
A549 = system: A549
UO-31 = system: UO-31
OVCAR-8 = system: OVCAR-8
OVCAR-5 = system: OVCAR-5
LOX IMVI = system: LOX IMVI
UACC-257 = system: UACC-257
K562 = system: K562
Malme-3M = system: Malme-3M
U-251 = system: U-251
MDA-N = system: MDA-N
SK-MEL-2 = system: SK-MEL-2
HT-29 = system: HT-29
IGROV-1 = system: IGROV-1
COLO 205 = system: COLO 205
HL-60 = system: HL-60
NCI-H522 = system: NCI-H522
SN12C = system: SN12C
SF-268 = system: SF-268
MOLT-4 = system: MOLT-4
HCC 2998 = system: HCC 2998
SK-MEL-28 = system: SK-MEL-28
RXF 393 = system: RXF 393
NCI-H23 = system: NCI-H23
UACC-62 = system: UACC-62
RPMI-8226 = system: RPMI-8226
SW-620 = system: SW-620
NCI/ADR-RES = system: NCI/ADR-RES
DU-145 = system: DU-145
CCRF-CEM = system: CCRF-CEM
NCI-H460 = system: NCI-H460

## OCC(O)C(O)C(C=NNc1ncnc2ccc(Br)cc12)=NNc1ncnc2ccc(Br)cc12 (stereo not given)
OVCAR-3
  GI50: 0.344 µM (active)
M14
  GI50: 3.48 µM (inactive)
SNB-75
  GI50: 5.82 µM (inactive)
PC-3
  GI50: 4.73 µM (inactive)
HOP-62
  GI50: 5.12 µM (inactive)
SF-295
  GI50: 4.74 µM (inactive)
HOP-92
  GI50: 4.3 µM (inactive)
T47D
  GI50: 0.413 µM (active)
786-0
  GI50: 1.14 µM (inactive)
SR
  GI50: 0.579 µM (active)
OVCAR-4
  GI50: 0.435 µM (active)
MDA-MB-231
  GI50: 1.26 µM (inactive)
EKVX
  GI50: 0.581 µM (active)
SK-MEL-5
  GI50: 1.22 µM (inactive)
MDA-MB-435
  GI50: 4.79 µM (inactive)
Hs-578T
  GI50: 41.9 µM (inactive)
HCT-116
  GI50: 0.404 µM (active)
ACHN
  GI50: 1.85 µM (inactive)
SK-OV-3
  GI50: 2.59 µM (inactive)
A498
  GI50: 26 µM (inactive)
CAKI-1
  GI50: 2.22 µM (inactive)
SNB-19
  GI50: 6.04 µM (inactive)
TK-10
  GI50: 13.2 µM (inactive)
KM12
  GI50: 5.7 µM (inactive)
NCI-H226
  GI50: 2.12 µM (inactive)
MCF7
  GI50: 0.479 µM (active)
SF-539
  GI50: 3.13 µM (inactive)
A549
  GI50: 6.3 µM (inactive)
UO-31
  GI50: 9.71 µM (inactive)
OVCAR-8
  GI50: 1.72 µM (inactive)
OVCAR-5
  GI50: 5.13 µM (inactive)
LOX IMVI
  GI50: 0.991 µM (active)
UACC-257
  GI50: 3.52 µM (inactive)
K562
  GI50: 2.58 µM (inactive)
Malme-3M
  GI50: 1.84 µM (inactive)
U-251
  GI50: 1.28 µM (inactive)
MDA-N
  GI50: 5.06 µM (inactive)
SK-MEL-2
  GI50: 2.26 µM (inactive)
HT-29
  GI50: 0.662 µM (active)
IGROV-1
  GI50: 1.45 µM (inactive)
COLO 205
  GI50: 0.366 µM (active)
HL-60
  GI50: 0.325 µM (active)
NCI-H522
  GI50: 0.404 µM (active)
SN12C
  GI50: 6.84 µM (inactive)
SF-268
  GI50: 1.16 µM (inactive)
MOLT-4
  GI50: 0.282 µM (active)

## CC1(C)C=C(/C=N/Nc2ccccc2)C(C#N)=C(O)C1(C#N)C#N
HCC 2998
  GI50: > 100 µM (inactive)
OVCAR-3
  GI50: > 100 µM (inactive)
M14
  GI50: > 100 µM (inactive)
SNB-75
  GI50: > 100 µM (inactive)
PC-3
  GI50: 36.7 µM (inactive)
SK-MEL-28
  GI50: > 100 µM (inactive)
RXF 393
  GI50: > 100 µM (inactive)
HOP-62
  GI50: > 100 µM (inactive)
SF-295
  GI50: 90.4 µM (inactive)
HOP-92
  GI50: 28.5 µM (inactive)
786-0
  GI50: > 100 µM (inactive)
SR
  GI50: 31.3 µM (inactive)
OVCAR-4
  GI50: > 100 µM (inactive)
MDA-MB-231
  GI50: > 100 µM (inactive)
EKVX
  GI50: > 100 µM (inactive)
NCI-H23
  GI50: > 100 µM (inactive)
SK-MEL-5
  GI50: > 100 µM (inactive)
UACC-62
  GI50: > 100 µM (inactive)
MDA-MB-435
  GI50: > 100 µM (inactive)
Hs-578T
  GI50: > 100 µM (inactive)
HCT-116
  GI50: > 100 µM (inactive)
ACHN
  GI50: > 100 µM (inactive)
RPMI-8226
  GI50: 52.5 µM (inactive)
SK-OV-3
  GI50: > 100 µM (inactive)
A498
  GI50: 48.6 µM (inactive)
CAKI-1
  GI50: > 100 µM (inactive)
SW-620
  GI50: > 100 µM (inactive)
SNB-19
  GI50: > 100 µM (inactive)
TK-10
  GI50: > 100 µM (inactive)
KM12
  GI50: > 100 µM (inactive)
NCI-H226
  GI50: > 100 µM (inactive)
MCF7
  GI50: > 100 µM (inactive)
SF-539
  GI50: > 100 µM (inactive)
NCI/ADR-RES
  GI50: > 100 µM (inactive)
A549
  GI50: > 100 µM (inactive)
UO-31
  GI50: > 100 µM (inactive)
OVCAR-8
  GI50: > 100 µM (inactive)
OVCAR-5
  GI50: > 100 µM (inactive)
LOX IMVI
  GI50: > 100 µM (inactive)
DU-145
  GI50: > 100 µM (inactive)
UACC-257
  GI50: > 100 µM (inactive)
K562
  GI50: 56.5 µM (inactive)
Malme-3M
  GI50: > 100 µM (inactive)
MDA-N
  GI50: > 100 µM (inactive)
CCRF-CEM
  GI50: 68.4 µM (inactive)
NCI-H460
  GI50: 92.7 µM (inactive)
HT-29
  GI50: 93.8 µM (inactive)
IGROV-1
  GI50: > 100 µM (inactive)
COLO 205
  GI50: 74.1 µM (inactive)
HL-60
  GI50: 41.9 µM (inactive)
NCI-H522
  GI50: > 100 µM (inactive)
SN12C
  GI50: > 100 µM (inactive)
SF-268
  GI50: > 100 µM (inactive)
MOLT-4
  GI50: 57.7 µM (inactive)
